Where a SMILES comes first, the peptide text is derived from it. Bridges are numbered along the chain shown (N, C = ends). [ ]: non-standard residue; d: D form. The star is where a group is joined. 2Nal = N[C@@H](Cc1ccc2ccccc2c1)C(=O)O; N(Me)CH2CH2Ph = CN(CCc1ccccc1)*; pGlu = O=C1CC[C@@H](C(=O)O)N1; NHPhenethyl = c1ccc(CCN*)cc1; d(hCys) = N[C@H](CCS)C(=O)O; dNle = CCCC[C@@H](N)C(=O)O; hCys = N[C@@H](CCS)C(=O)O; Nle = CCCC[C@H](N)C(=O)O
assay: Surrogate Activity-Based Plasma Stability Assay; assay type: in vitro ADME; details: rat
Text: Surrogate Activity-Based Plasma Stability Assay:
2) Calculate slope of value above and […]

half-life | SMILES
1700 min | CCCC[C@@H](NC(=O)[C@@H]1CCCN1C(=O)[C@H](C)NC(=O)[C@H](CCCCN)NC(=O)[C@@H]1CSSC[C@H](NC(=O)[C@H](CCCNC(=N)N)NC(=O)[C@@H]2CCC(=O)N2)C(=O)N[C@@H](CCCNC(=N)N)C(=O)N[C@@H](CC(C)C)C(=O)N[C@@H](CO)C(=O)N1)C(=O)N[C@H](C)C(=O)N[C@H](Cc1ccccc1)C(=O)O [Example 24, pE-R-C*-R-L-S-C*-K-A-P-(D-Nle)-a-f-OH] ([pGlu]RCRLSCKAP[dNle][dA][dF]-OH; disulfide 3-7)
8 min | CCCC[C@H](NC(=O)[C@@H]1CCCN1C(=O)CNC(=O)[C@H](CCCCN)NC(=O)[C@@H]1CSSC[C@H](NC(C)=O)C(=O)N[C@@H](CCCNC(=N)N)C(=O)N2CCC[C@H]2C(=O)N[C@@H](CCCNC(=N)N)C(=O)N[C@@H](CC(C)C)C(=O)N[C@@H](CO)C(=O)N1)C(=O)N1CCC[C@H]1C(=O)N[C@@H](Cc1ccccc1)C(=O)O [Example 1, Ac-C*-R-P-R-L-S-C*-K-G-P-Nle-P-F-OH] (Ac-CRPRLSCKGP[Nle]PF-OH; disulfide 1-7)
> 1000 min | CCCC[C@@H](NC(=O)[C@@H]1CCCN1C(=O)CNC(=O)[C@H](Cc1ccccc1)NC(=O)[C@@H]1CSSC[C@H](NC(=O)[C@H](CCCNC(=N)N)NC(=O)[C@@H]2CCC(=O)N2)C(=O)N[C@@H](CCCNC(=N)N)C(=O)N[C@@H](CC(C)C)C(=O)N[C@@H](CO)C(=O)N1)C(=O)N[C@H](C)C(=O)N[C@H](Cc1ccccc1)C(=O)O [Example 22, pE-R-C*-R-L-S-C*-F-G-P-(D-Nle)-a-f-OH] ([pGlu]RCRLSCFGP[dNle][dA][dF]-OH; disulfide 3-7)
50 min | CCCC[C@@H](NC(=O)[C@@H]1CCCN1C(=O)CNC(=O)[C@H](CCCCN)NC(=O)[C@@H]1CCSSC[C@@H](NC(C)=O)C(=O)N[C@@H](CCCNC(=N)N)C(=O)N2CCC[C@H]2C(=O)N[C@@H](CCCNC(=N)N)C(=O)N[C@@H](CC(C)C)C(=O)N[C@@H](CO)C(=O)N1)C(=O)N[C@H](C)C(=O)N[C@H](Cc1ccccc1)C(=O)O [Example 19, Ac-c-R-P-R-L-S-(hC)-K-G-P-(D-Nle)-a-f-OH] (Ac-[dC]RPRLS[hCys]KGP[dNle][dA][dF]-OH; disulfide 1-7 (inferred))
13 min | CCCC[C@H](NC(=O)[C@@H]1CCCN1C(=O)CNC(=O)[C@H](CCCCN)NC(=O)[C@@H]1CSSC[C@H](NC(=O)[C@@H]2CCCN2C(=O)[C@H](CCCNC(=N)N)NC(=O)[C@@H]2CCC(=O)N2)C(=O)N[C@@H](CC(C)C)C(=O)N[C@@H](CO)C(=O)N1)C(=O)N1CCC[C@H]1C(=O)N[C@@H](Cc1ccccc1)C(=O)O [Example 28, pE-R-P-C*-L-S-C*-K-G-P-Nle-P-F-OH] ([pGlu]RPCLSCKGP[Nle]PF-OH; disulfide 4-7)
7 min | CCCC[C@H](NC(=O)[C@@H]1CCCN1C(=O)CNC(=O)[C@H](CCCCN)NC(=O)[C@@H]1CCSSCC[C@@H](NC(C)=O)C(=O)N[C@@H](CCCNC(=N)N)C(=O)N2CCC[C@H]2C(=O)N[C@@H](CCCNC(=N)N)C(=O)N[C@@H](CC(C)C)C(=O)N[C@@H](CO)C(=O)N1)C(=O)N1CCC[C@H]1C(=O)N[C@@H](Cc1ccccc1)C(=O)O [Example 16, Ac-(D-hC)*-R-P-R-L-S-hC*-K-G-P-Nle-P-F-OH] (Ac-[d(hCys)]RPRLS[hCys]KGP[Nle]PF-OH; disulfide 1-7)
47 min | CCCC[C@@H](NC(=O)[C@@H]1CCCN1C(=O)CNC(=O)[C@H](CCCCN)NC(=O)[C@H]1CCSSC[C@@H](NC(=O)[C@@H]2CCCN2C(=O)[C@H](CCCNC(=N)N)NC(=O)[C@@H]2CCC(=O)N2)C(=O)N[C@@H](CC(C)C)C(=O)N[C@@H](CO)C(=O)N1)C(=O)N[C@H](C)C(=O)N[C@H](Cc1ccc(O)cc1)C(=O)O [Example 37, pE-R-P-c*-L-S-(D-hC)*-K-G-P-(D-Nle)-a-y-OH] ([pGlu]RP[dC]LS[d(hCys)]KGP[dNle][dA][dY]-OH; disulfide 4-7)
57.4 min | CCCC[C@H](NC(=O)[C@@H]1CCCN1C(=O)CNC(=O)[C@H](CCCCN)NC(=O)[C@@H]1CSSC[C@H](NC(C)=O)C(=O)N[C@@H](CCCNC(=N)N)C(=O)N2CCC[C@H]2C(=O)N[C@@H](CCCNC(=N)N)C(=O)N[C@@H](CC(C)C)C(=O)N[C@@H](CO)C(=O)N1)C(=O)N1CCC[C@H]1C(=O)N[C@H](Cc1ccccc1)C(=O)O [Example 10, Ac-C*-R-P-R-L-S-C*-K-G-P-Nle-P-f-OH] (Ac-CRPRLSCKGP[Nle]P[dF]-OH; disulfide 1-7)
11.9 min | CCCC[C@H](NC(=O)[C@@H]1CCCN1C(=O)CNC(=O)[C@H](CCCCN)NC(=O)[C@@H]1CSSC[C@H](NC(=O)[C@H](CCCNC(=N)N)NC(=O)[C@@H]2CCC(=O)N2)C(=O)N[C@@H](CCCNC(=N)N)C(=O)N[C@@H](CC(C)C)C(=O)N[C@@H](CO)C(=O)N1)C(=O)N1CCC[C@H]1C(=O)N[C@@H](Cc1ccccc1)C(=O)O [Example 20, pE-R-C*-R-L-S-C*-K-G-P-Nle-P-F-OH] ([pGlu]RCRLSCKGP[Nle]PF-OH; disulfide 3-7)
10 min | CCCC[C@H](NC(=O)[C@@H]1CCCN1C(=O)CNC(=O)[C@H](CCCCN)NC(=O)[C@@H]1CCSSC[C@@H](NC(C)=O)C(=O)N[C@@H](CCCNC(=N)N)C(=O)N2CCC[C@H]2C(=O)N[C@@H](CCCNC(=N)N)C(=O)N[C@@H](CC(C)C)C(=O)N[C@@H](CO)C(=O)N1)C(=O)N1CCC[C@H]1C(=O)N[C@@H](Cc1ccccc1)C(=O)O [Example 13, Ac-c*-R-P-R-L-S-hC*-K-G-P-Nle-P-F-OH] (Ac-[dC]RPRLS[hCys]KGP[Nle]PF-OH; disulfide 1-7)
> 1000 min | CCCC[C@@H](NC(=O)[C@@H]1CCCN1C(=O)CNC(=O)[C@H](CCCCN)NC(=O)[C@@H]1CSSC[C@H](NC(=O)[C@@H]2CCCN2C(=O)[C@H](CCCNC(=N)N)NC(=O)[C@@H]2CCC(=O)N2)C(=O)N[C@@H](CC(C)C)C(=O)N[C@@H](CO)C(=O)N1)C(=O)N[C@H](C)C(=O)N[C@H](Cc1ccccc1)C(=O)O [Example 33, pE-R-P-C*-L-S-C*-K-G-P-(D-Nle)-a-f-OH] ([pGlu]RPCLSCKGP[dNle][dA][dF]-OH; disulfide 4-7)
5 min | CCCC[C@H](NC(=O)[C@@H]1CCCN1C(=O)CNC(=O)[C@H](CCCCN)NC(=O)[C@@H]1CSSC[C@H](NC(C)=O)C(=O)N[C@@H](CCCNC(=N)N)C(=O)N2CCC[C@H]2C(=O)N[C@@H](CCCNC(=N)N)C(=O)N[C@@H](CC(C)C)C(=O)N[C@@H](CO)C(=O)N1)C(=O)N1CCC[C@H]1C(=O)N[C@@H](Cc1ccc2ccccc2c1)C(=O)O [Example 5, Ac-C*-R-P-R-L-S-C*-K-G-P-Nle-P-Nal-OH] (Ac-CRPRLSCKGP[Nle]P[2Nal]-OH; disulfide 1-7)
3160 min | CCCC[C@@H](NC(=O)[C@@H]1CCCN1C(=O)[C@@H](C)NC(=O)[C@H](CCCCN)NC(=O)[C@@H]1CSSC[C@H](NC(=O)[C@H](CCCNC(=N)N)NC(=O)[C@@H]2CCC(=O)N2)C(=O)N[C@@H](CCCNC(=N)N)C(=O)N[C@@H](CC(C)C)C(=O)N[C@@H](CO)C(=O)N1)C(=O)N[C@H](C)C(=O)N[C@H](Cc1ccccc1)C(=O)O [Example 23, pE-R-C*-R-L-S-C*-K-a-P-(D-Nle)-a-f-OH] ([pGlu]RCRLSCK[dA]P[dNle][dA][dF]-OH; disulfide 3-7)
50 min | CC(=O)N[C@@H]1CCSSCC[C@@H](C(=O)N[C@@H](CCCCN)C(=O)NCC(=O)N2CCC[C@H]2C(=O)N[C@H](Cc2ccccc2)C(=O)N[C@H](C)C(=O)N[C@H](Cc2ccccc2)C(=O)O)NC(=O)[C@H](CO)NC(=O)[C@H](CC(C)C)NC(=O)[C@H](CCCNC(=N)N)NC(=O)[C@@H]2CCCN2C(=O)[C@H](CCCNC(=N)N)NC1=O [Example 18, Ac-(D-hC)*-R-P-R-L-S-(hC)*-K-G-P-f-a-f-OH] (Ac-[d(hCys)]RPRLS[hCys]KGP[dF][dA][dF]-OH; disulfide 1-7)
7.5 min | CCCC[C@H](NC(=O)[C@@H]1CCCN1C(=O)CNC(=O)[C@H](CCCCN)NC(=O)[C@H]1CSSC[C@@H](NC(C)=O)C(=O)N[C@@H](CCCNC(=N)N)C(=O)N2CCC[C@H]2C(=O)N[C@@H](CCCNC(=N)N)C(=O)N[C@@H](CC(C)C)C(=O)N[C@@H](CO)C(=O)N1)C(=O)N1CCC[C@H]1C(=O)N[C@@H](Cc1ccccc1)C(=O)O [Example 14, Ac-c*-R-P-R-L-S-c*-K-G-P-Nle-P-F-OH] (Ac-[dC]RPRLS[dC]KGP[Nle]PF-OH; disulfide 1-7)

SMILES | half-life
CCCC[C@H](NC(=O)[C@@H]1CCCN1C(=O)CNC(=O)[C@H](CCCCN)NC(=O)[C@@H]1CSSC[C@H](NC(C)=O)C(=O)N[C@@H](CCCNC(=N)N)C(=O)N2CCC[C@H]2C(=O)N[C@@H](CCCNC(=N)N)C(=O)N[C@@H](CC(C)C)C(=O)N[C@@H](CO)C(=O)N1)C(=O)NCCc1ccccc1 [Example 11, Ac-C*-R-P-R-L-S-C*-K-G-P-Nle-NH(Phenethyl)] (Ac-CRPRLSCKGP[Nle]-NHPhenethyl; disulfide 1-7) | 32.8 min
CCCC[C@H](NC(=O)[C@@H]1CCCN1C(=O)CNC(=O)[C@H](CCCCN)NC(=O)[C@@H]1CSSC[C@H](NC(=O)[C@@H]2CCCN2C(=O)[C@H](CCCNC(=N)N)NC(=O)[C@@H]2CCC(=O)N2)C(=O)N[C@@H](CC(C)C)C(=O)N[C@@H](CO)C(=O)N1)C(=O)NCCc1ccccc1 [Example 31, pE-R-P-C*-L-S-C*-K-G-P-Nle-NH(Phenethyl)] | 43.1 min

same assay, conditions: rat, read-out: Surrogate activity-based Plasma stability t½

SMILES | half-life
CCCC[C@H](NC(=O)[C@@H]1CCCN1C(=O)CNC(=O)[C@H](CCCCN)NC(=O)[C@@H]1CSSC[C@H](NC(C)=O)C(=O)N[C@@H](CCCNC(=N)N)C(=O)N2CCC[C@H]2C(=O)N[C@@H](CCCNC(=N)N)C(=O)N[C@@H](CC(C)C)C(=O)N[C@@H](CO)C(=O)N1)C(=O)N1CCC[C@H]1C(=O)N(C)CCc1ccccc1 [Example 9, Ac-C*-R-P-R-L-S-C*-K-G-P-Nle-P-NMe(Phenethyl)] (Ac-CRPRLSCKGP[Nle]P-{N(Me)CH2CH2Ph}; disulfide 1-7) | 109 min
C=CCCCCCCCCCC(CCCCCCCCCCC(=O)O)(C(=O)O)C(=O)NCCOCCOCCOCCOCCOCCOCCOCCOCCOCCOCCOCCOCCOCCOCCOCCOCCOCCOCCOCCOCCOCCOCCOCCn1nnc2c1CC[C@H]1[C@@H](CC2)[C@H]1COC(=O)NCCCC[C@H](NC(=O)[C@@H]1CSSC[C@H](NC(=O)[C@@H]2CCCN2C(=O)[C@H](CCCNC(=N)N)NC(=O)[C@@H]2CCC(=O)N2)C(=O)N[C@@H](CC(C)C)C(=O)N[C@@H](CO)C(=O)N1)C(=O)NCC(=O)N1CCC[C@H]1C(=O)N[C@H](CCCC)C(=O)NCCc1ccccc1 (stereo partly shown) [Example 40] | > 1000 min

From patent publication US9683019B2, “Cyclic polypeptides for the treatment of heart failure” (priority 2013, dated 2017)
